Measured values from PubChem BioAssay AID1919003 (Molecular Pharmacology Branch, DTP, NCI, 2023).
Several values for one entry are separate records, joined by “and”; a condition that tells them apart may be missing. Equal entries are not always repeated.

Tested on: 786-0 complex spheroids with HUVEC/MSC, growth % test/control
Experiment: Anticancer human tumor 786-0 cell line growth inhibition [AhR];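 further: compound exposure lasted seven days before the read-out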
Settings: for viability, T/C: stronger effect = lower value
In short: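 Spheroids combined tumor cells with HUVEC endothelial cells and human MSCs as stroma. AhR antagonists were paired with standard or investigational drugs, each dosed in half-log steps down from near clinical Cmax, or from 10 microM where Cmax was unknown.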

[1] = curve of first compound, second compound 0.1 µM
[2] = curve of first compound, second compound 0.316 µM
[3] = curve of first compound, second compound 1 µM
[4] = curve of first compound, second compound 3.16 µM
[5] = curve of first compound, second compound 10 µM
[6] = second compound 0.1 µM, first compound 0.0316 µM
[7] = second compound 0.1 µM, first compound 0.1 µM
[8] = second compound 0.1 µM, first compound 0.316 µM
[9] = second compound 0.1 µM, first compound 1 µM
[10] = second compound 0.316 µM, first compound 0.0316 µM
[11] = second compound 0.316 µM, first compound 0.1 µM
[12] = second compound 0.316 µM, first compound 0.316 µM
[13] = second compound 0.316 µM, first compound 1 µM
[14] = second compound 1 µM, first compound 0.0316 µM
[15] = second compound 1 µM, first compound 0.1 µM
[16] = second compound 1 µM, first compound 0.316 µM
[17] = second compound 1 µM, first compound 1 µM
[18] = second compound 3.16 µM, first compound 0.0316 µM
[19] = second compound 3.16 µM, first compound 0.1 µM
[20] = second compound 3.16 µM, first compound 0.316 µM
[21] = second compound 3.16 µM, first compound 1 µM
[22] = second compound 10 µM, first compound 0.0316 µM
[23] = second compound 10 µM, first compound 0.1 µM
[24] = second compound 10 µM, first compound 0.316 µM
[25] = second compound 10 µM, first compound 1 µM
[26] = second compound 0.1 µM, first compound 3.16 µM
[27] = second compound 0.1 µM, first compound 10 µM
[28] = second compound 0.316 µM, first compound 3.16 µM
[29] = second compound 0.316 µM, first compound 10 µM
[30] = second compound 1 µM, first compound 3.16 µM
[31] = second compound 1 µM, first compound 10 µM
[32] = second compound 3.16 µM, first compound 3.16 µM
[33] = second compound 3.16 µM, first compound 10 µM
[34] = second compound 10 µM, first compound 3.16 µM
[35] = second compound 10 µM, first compound 10 µM

## CC1COCCN1c1cc(-c2ccnn2C)c2ccnc(-c3ccn[nH]3)c2n1 (stereo not given) + CC(CO)NC(=O)c1cc(-c2ccc(Cl)cc2)nn(-c2cnn(C)c2)c1=O
[1]
  IC50: 134 nM
[2]
  IC50: 109 nM
[3]
  IC50: 98.3 nM
[4]
  IC50: 79.4 nM
[5]
  IC50: 51.1 nM
Second compound 0.1 µM, first compound 0.00316 µM
  viability, T/C: 100%
Second compound 0.1 µM, first compound 0.01 µM
  viability, T/C: 100%
[6]
  viability, T/C: 106%
[7]
  viability, T/C: 63.5%
[8]
  viability, T/C: 11.1%
[9]
  viability, T/C: 3.76%
Second compound 0.316 µM, first compound 0.00316 µM
  viability, T/C: 112%
Second compound 0.316 µM, first compound 0.01 µM
  viability, T/C: 103%
[10]
  viability, T/C: 105%
[11]
  viability, T/C: 53.3%
[12]
  viability, T/C: 7.31%
[13]
  viability, T/C: 3.22%
Second compound 1 µM, first compound 0.00316 µM
  viability, T/C: 97.6%
Second compound 1 µM, first compound 0.01 µM
  viability, T/C: 110%
[14]
  viability, T/C: 104%
[15]
  viability, T/C: 49%
[16]
  viability, T/C: 8.48%
[17]
  viability, T/C: 3.85%
Second compound 3.16 µM, first compound 0.00316 µM
  viability, T/C: 112%
Second compound 3.16 µM, first compound 0.01 µM
  viability, T/C: 114%
[18]
  viability, T/C: 103%
[19]
  viability, T/C: 36.7%
[20]
  viability, T/C: 6.89%
[21]
  viability, T/C: 3.57%
Second compound 10 µM, first compound 0.00316 µM
  viability, T/C: 116%
Second compound 10 µM, first compound 0.01 µM
  viability, T/C: 109%
[22]
  viability, T/C: 78.5%
[23]
  viability, T/C: 10.1%
[24]
  viability, T/C: 2.89%
[25]
  viability, T/C: 2.73%

## Cc1cncc(-c2nc(NCCc3c[nH]c4ccccc34)c3ncn(C(C)C)c3n2)c1
Compound 0.1 µM
  viability, T/C: 114% [middle of 20 runs]
Compound 10 µM
  viability, T/C: 11.6% [middle of 20 runs]
Compound alone, run of 08/16/2022
  IC50: 5.18 µM [middle of 23 runs]

## Nc1ccccc1NC(=O)c1ccc(CNC(=O)OCc2cccnc2)cc1
Compound 0.0316 µM
  viability, T/C: 105% and 107% and 108%
Compound 0.1 µM
  viability, T/C: 102% and 106% and 113%
Compound 0.316 µM
  viability, T/C: 106% and 102% and 111%
Compound 1 µM
  viability, T/C: 113% and 108% and 114%
Compound 3.16 µM
  viability, T/C: 73.9% and 96.8% and 86.7%
Compound 10 µM
  viability, T/C: 25.2% and 36.6% and 21.4%
Curve of compound
  IC50: 5560 nM and 7780 nM and 6040 nM

## COc1ccc([C@@H](O)c2cc(-c3ncnc4cc(N5CCOCC5)ccc34)c(F)cc2Cl)nn1 + Cc1ccccc1N=Nc1ccc(NC(=O)c2ccnn2C)c(C)c1
[1]
  IC50: > 10000 nM
[2]
  IC50: > 10000 nM
[3]
  IC50: > 10000 nM
[4]
  IC50: > 10000 nM
[5]
  IC50: 9480 nM
[6]
  viability, T/C: 90.6%
[7]
  viability, T/C: 96%
[8]
  viability, T/C: 99.4%
[9]
  viability, T/C: 102%
[26]
  viability, T/C: 102%
[27]
  viability, T/C: 79.9%
[10]
  viability, T/C: 97.6%
[11]
  viability, T/C: 102%
[12]
  viability, T/C: 99.2%
[13]
  viability, T/C: 100%
[28]
  viability, T/C: 106%
[29]
  viability, T/C: 87.1%
[14]
  viability, T/C: 86.4%
[15]
  viability, T/C: 93.3%
[16]
  viability, T/C: 96%
[17]
  viability, T/C: 105%
[30]
  viability, T/C: 97.1%
[31]
  viability, T/C: 77.4%
[18]
  viability, T/C: 84.8%
[19]
  viability, T/C: 87.1%
[20]
  viability, T/C: 82.9%
[21]
  viability, T/C: 84.1%
[32]
  viability, T/C: 89.3%
[33]
  viability, T/C: 63.9%
[22]
  viability, T/C: 96.9%
[23]
  viability, T/C: 90.2%
[24]
  viability, T/C: 81.9%
[25]
  viability, T/C: 86.1%
[34]
  viability, T/C: 72.8%
[35]
  viability, T/C: 48.2%

## O=C(c1cc(Cc2n[nH]c(=O)c3ccccc23)ccc1F)N1CCN(C(=O)C2CC2)CC1 + Cc1ccccc1N=Nc1ccc(NC(=O)c2ccnn2C)c(C)c1
[1]
  IC50: > 10000 nM
[2]
  IC50: > 10000 nM
[3]
  IC50: > 10000 nM
[4]
  IC50: > 10000 nM
[5]
  IC50: > 10000 nM
[6]
  viability, T/C: 101%
[7]
  viability, T/C: 105%
[8]
  viability, T/C: 99.8%
[9]
  viability, T/C: 104%
[26]
  viability, T/C: 97%
[27]
  viability, T/C: 104%
[10]
  viability, T/C: 97.1%
[11]
  viability, T/C: 101%
[12]
  viability, T/C: 107%
[13]
  viability, T/C: 106%
[28]
  viability, T/C: 107%
[29]
  viability, T/C: 101%
[14]
  viability, T/C: 100%
[15]
  viability, T/C: 101%
[16]
  viability, T/C: 104%
[17]
  viability, T/C: 97.1%
[30]
  viability, T/C: 107%
[31]
  viability, T/C: 99.1%
[18]
  viability, T/C: 94.6%
[19]
  viability, T/C: 97.9%
[20]
  viability, T/C: 99.5%
[21]
  viability, T/C: 97.3%
[32]
  viability, T/C: 106%
[33]
  viability, T/C: 94.4%
[22]
  viability, T/C: 98.2%
[23]
  viability, T/C: 93.8%
[24]
  viability, T/C: 102%
[25]
  viability, T/C: 94.9%
[34]
  viability, T/C: 88.1%
[35]
  viability, T/C: 87.5%

## COc1cc(Nc2ncc3c(n2)-c2ccc(Cl)cc2C(c2c(F)cccc2OC)=NC3)ccc1C(=O)O + CC(CO)NC(=O)c1cc(-c2ccc(Cl)cc2)nn(-c2cnn(C)c2)c1=O
[1]
  IC50: 2790 nM
[2]
  IC50: 2600 nM
[3]
  IC50: 2550 nM
[4]
  IC50: 2540 nM
[5]
  IC50: 2820 nM
[6]
  viability, T/C: 101%
[7]
  viability, T/C: 96.8%
[8]
  viability, T/C: 99.9%
[9]
  viability, T/C: 82%
[26]
  viability, T/C: 46.4%
[27]
  viability, T/C: 23.9%
[10]
  viability, T/C: 106%
[11]
  viability, T/C: 100%
[12]
  viability, T/C: 107%
[13]
  viability, T/C: 84.7%
[28]
  viability, T/C: 43.2%
[29]
  viability, T/C: 19.8%
[14]
  viability, T/C: 96.8%
[15]
  viability, T/C: 103%
[16]
  viability, T/C: 108%
[17]
  viability, T/C: 80.2%
[30]
  viability, T/C: 44%
[31]
  viability, T/C: 20.3%
[18]
  viability, T/C: 107%
[19]
  viability, T/C: 93.2%
[20]
  viability, T/C: 104%
[21]
  viability, T/C: 87.9%
[32]
  viability, T/C: 41.1%
[33]
  viability, T/C: 19.9%
[22]
  viability, T/C: 92.3%
[23]
  viability, T/C: 86.7%
[24]
  viability, T/C: 101%
[25]
  viability, T/C: 85%
[34]
  viability, T/C: 46.2%
[35]
  viability, T/C: 19.5%
